# Reference: patent publication US8962630B2, “Pyrrolopyrimidine compounds and their uses” (Novartis AG, priority 2008, dated 2015)
# Read-outs that look alike come from different tables or passages of the source.
# Columns and labels:
# CDK4/cyclin D1 = CDK4/cyclin D1 (Homo sapiens (Human), UniProt P11802); test: CDK4/Cyclin D1 enzymatic activity assay (Lance TR-FRET); format: biochemical
# In short: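 Recombinant His6-CDK4/GST-cyclin D1 (Sf21-expressed), 0.3 nM, phosphorylated 175 nM pRb152 with 3 μM ATP in HEPES pH 7.5, Mg/Mn buffer, 2% DMSO, 60 min at room temperature. Compound range 0.005-10 μM. EDTA-quenched; pRb S780 phosphorylation read by TR-FRET (Eu anti-rabbit/APC-streptavidin) for IC50.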
# CDK1/cyclin B = CDK1/cyclin B (Homo sapiens (Human), UniProt P06493); test: CDK1/Cyclin B enzymatic activity assay (IMAP-FP); format: biochemical
# Excerpt: A 384-well microtiter IMAP-FPT™ (Molecular Devices Trade Mark Technology) endpoint assay was used for CDK1/cyclin B kinase activity measurements. The same assay was used for IC50 determination of small molecule inhibitors.
# CDK2/cyclin A = CDK2/cyclin A (Homo sapiens (Human), UniProt P24941); test: CDK2/Cyclin A enzymatic activity assay (IMAP-FP); format: biochemical
# pRb negative cells = test: cell proliferation of pRb negative cells; format: cell-based; details: high concentrations
# cell cycle = cell cycle analysis; format: cell-based; details: up to 10 uM
# [1] = Table 2, 3 μM ATP, read-out: CDK4
# [2] = Table 2, 20 μM ATP, read-out: CDK1
# [3] = Table 4, read-out: IC50 (μM) CDK4
# [4] = Table 4, read-out: IC50 (μM) CDK1
# [5] = Table 4, read-out: IC50 (μM) CDK2
# Chain of CDK1/cyclin B (P06493 whole entry, species assumed): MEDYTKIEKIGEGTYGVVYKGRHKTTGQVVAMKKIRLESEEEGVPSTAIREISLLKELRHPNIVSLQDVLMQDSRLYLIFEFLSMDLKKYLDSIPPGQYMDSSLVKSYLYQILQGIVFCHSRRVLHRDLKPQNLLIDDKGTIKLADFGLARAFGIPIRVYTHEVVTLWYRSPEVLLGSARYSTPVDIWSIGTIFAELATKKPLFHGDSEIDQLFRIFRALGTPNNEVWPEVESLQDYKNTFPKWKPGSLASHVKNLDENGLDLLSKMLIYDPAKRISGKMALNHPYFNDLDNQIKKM
# Chain of CDK1/cyclin B (P14635 whole entry partner, species assumed): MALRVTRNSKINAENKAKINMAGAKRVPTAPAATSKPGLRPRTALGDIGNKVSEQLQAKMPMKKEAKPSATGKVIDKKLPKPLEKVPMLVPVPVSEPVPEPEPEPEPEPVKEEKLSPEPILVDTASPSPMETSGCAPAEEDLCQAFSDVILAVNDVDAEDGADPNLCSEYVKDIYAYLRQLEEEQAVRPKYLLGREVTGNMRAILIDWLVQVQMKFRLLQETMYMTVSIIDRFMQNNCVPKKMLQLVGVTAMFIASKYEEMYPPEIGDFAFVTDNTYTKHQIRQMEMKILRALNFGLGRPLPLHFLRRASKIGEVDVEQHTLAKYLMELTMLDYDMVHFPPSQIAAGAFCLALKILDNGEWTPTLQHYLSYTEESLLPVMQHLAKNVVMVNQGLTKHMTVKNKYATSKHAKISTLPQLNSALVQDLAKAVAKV
# Chain of CDK4/cyclin D1 (P11802 whole entry): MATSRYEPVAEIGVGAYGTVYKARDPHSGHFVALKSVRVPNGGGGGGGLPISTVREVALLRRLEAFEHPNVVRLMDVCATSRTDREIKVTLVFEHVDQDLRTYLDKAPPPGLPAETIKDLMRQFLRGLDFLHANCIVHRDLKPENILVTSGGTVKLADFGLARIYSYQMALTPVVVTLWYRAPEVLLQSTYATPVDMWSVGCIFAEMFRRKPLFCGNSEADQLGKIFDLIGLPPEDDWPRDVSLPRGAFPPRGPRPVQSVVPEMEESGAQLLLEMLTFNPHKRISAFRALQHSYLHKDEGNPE
# Chain of CDK4/cyclin D1 (P24385 whole entry partner): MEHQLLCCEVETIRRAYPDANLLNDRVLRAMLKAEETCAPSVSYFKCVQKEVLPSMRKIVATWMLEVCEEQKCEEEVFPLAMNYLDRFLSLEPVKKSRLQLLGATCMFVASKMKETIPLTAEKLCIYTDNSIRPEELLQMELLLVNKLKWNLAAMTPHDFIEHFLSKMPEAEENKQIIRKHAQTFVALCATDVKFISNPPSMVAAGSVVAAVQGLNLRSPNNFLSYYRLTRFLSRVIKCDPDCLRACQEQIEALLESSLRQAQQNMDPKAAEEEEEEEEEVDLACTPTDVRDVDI
SMILES,IC50 (CDK4/cyclin D1; [1]) [µM],IC50 (CDK1/cyclin B; [2]) [µM],"IC50 (CDK2/cyclin A; Table 2, read-out: CDK2) [µM]",IC50 (CDK4/cyclin D1; [3]) [µM],IC50 (CDK1/cyclin B; [4]) [µM],IC50 (CDK2/cyclin A; [5]) [µM],inhibition of cell proliferation of pRb negative cells (pRb negative cells),cell cycle arrest phase (cell cycle)
"CN(C)C(=O)c1cc2cnc(Nc3ccc(C(=O)N4CCN(CCO)CC4)cn3)nc2n1C1CCCC1 [Example 96, 7-Cyclopentyl-2-{5-[4-(2-hydroxy-ethyl)-piperazine-1-carbonyl]-pyridin-2-ylamino}-7H-pyrrolo[2,3-d]pyrimidine-6-carboxylic acid dimethylamide]",0.01 to 0.1,> 15,> 15,,,,,
"CCC(C)CN1CCN(c2ccc(Nc3ncc4cc(C(=O)N(C)C)n(C5CCCC5)c4n3)nc2)CC1 (centres unmarked) [Example 99, 7-Cyclopentyl-2-{5-[4-(2-methyl-butyl)-piperazin-1-yl]-pyridin-2-ylamino}-7H-pyrrolo[2,3-d]pyrimidine-6-carboxylic acid dimethylamide]",0.01 to 0.1,> 15,> 15,,,,,
"CN(C)C(=O)c1cc2cnc(Nc3ccc(C4CCN(CCO)CC4)cn3)nc2n1C1CCCC1 [Example 100, 7-Cyclopentyl-2-[1′-(2-hydroxy-ethyl)-1′,2′,3′,4′,5′,6′-hexahydro-[3,4]bipyridinyl-6-ylamino]-7H-pyrrolo[2,3-d]pyrimidine-6-carboxylic acid dimethylamide]",0.01 to 0.1,> 15,> 15,,,,,
"COC(=O)C(C)N1CCN(c2ccc(Nc3ncc4cc(C(=O)N(C)C)n(C5CCCC5)c4n3)nc2)CC1 (centres unmarked) [Example 101, 2-{4-[6-(7-Cyclopentyl-6-dimethylcarbamoyl-7H-pyrrolo[2,3-d]pyrimidin-2-ylamino)-pyridin-3-yl]-piperazin-1-yl}-propionic acid methyl ester]",0.1 to 1,> 15,> 15,,,,,
"CC(C(=O)O)N1CCN(c2ccc(Nc3ncc4cc(C(=O)N(C)C)n(C5CCCC5)c4n3)nc2)CC1 (centres unmarked) [Example 103, 2-{4-[6-(7-Cyclopentyl-6-dimethylcarbamoyl-7H-pyrrolo[2,3-d]pyrimidin-2-ylamino)-pyridin-3-yl]-piperazin-1-yl}-propionic acid]",0.01 to 0.1,> 15,> 15,,,,,
"CN(C)C(=O)c1cc2cnc(Nc3ccc(N4CCOCC4)cn3)nc2n1C1CCCC1 [Example 110, 7-Cyclopentyl-2-(5-morpholin-4-yl-pyridin-2-ylamino)-7H-pyrrolo[2,3-d]pyrimidine-6-carboxylic acid dimethylamide]",0.1 to 1,> 15,> 15,,,,,
"CN(C)C(=O)c1cc2cnc(Nc3ccc(N4CCNCC4)cc3)nc2n1C1CCCC1 [Example 200, reference compound]",,,,0.005,> 1.6,> 1.4,does inhibit the cell proliferation of pRb negative cells at high concentrations,starts to induce G2/M phase blocks at 1 and 10 uM concentrations
"O=C(c1cc2cnc(Nc3ccc(N4CCNCC4)cc3)nc2n1C1CCCC1)N1CCC1 [Example 201, reference compound]",,,,0.11,7.5,10.3,,
"Cc1c(C(=O)N(C)C)n(C2CCCC2)c2nc(Nc3ccc(N4CCNCC4)cn3)ncc12 [Example 202, reference compound]",,,,2.5,> 15,> 15,,

# Now from value to compound, other results behind:
IC50 (CDK4/cyclin D1; [1]) [µM],IC50 (CDK1/cyclin B; [2]) [µM],"IC50 (CDK2/cyclin A; Table 2, read-out: CDK2) [µM]",IC50 (CDK4/cyclin D1; [3]) [µM],IC50 (CDK1/cyclin B; [4]) [µM],IC50 (CDK2/cyclin A; [5]) [µM],SMILES,inhibition of cell proliferation of pRb negative cells (pRb negative cells),cell cycle arrest phase (cell cycle)
0.01 to 0.1,> 15,> 15,,,,"CN(C)C(=O)c1cc2cnc(Nc3ccc(N4CCN(CC#N)CC4)cn3)nc2n1C1CCCC1 [Example 84, 2-[5-(4-Cyanomethyl-piperazin-1-yl)-pyridin-2-ylamino]-7-cyclopentyl-7H-pyrrolo[2,3-d]pyrimidine-6-carboxylic acid dimethylamide]",,
0.01 to 0.1,> 15,> 15,,,,"CN(C)C(=O)c1cc2cnc(Nc3ccc(CN4CCN(CCO)CC4)cn3)nc2n1C1CCCC1 [Example 85, 7-Cyclopentyl-2-{5-[4-(2-hydroxy-ethyl)-piperazin-1-ylmethyl]-pyridin-2-ylamino}-7H-pyrrolo[2,3-d]pyrimidine-6-carboxylic acid dimethylamide]",,
0.01 to 0.1,> 15,> 15,,,,"CN(C)C(=O)c1cc2cnc(Nc3ccc(N4CCN(CCF)CC4)cn3)nc2n1C1CCCC1 [Example 86, 7-Cyclopentyl-2-{5-[4-(2-fluoro-ethyl)-piperazin-1-yl]-pyridin-2-ylamino}-7H-pyrrolo[2,3-d]pyrimidine-6-carboxylic acid dimethylamide]",,
0.01 to 0.1,13,> 15,,,,"CN(C)C(=O)c1cc2cnc(Nc3ccc(C(=O)N4CCC(O)CC4)cn3)nc2n1C1CCCC1 [Example 87, 7-Cyclopentyl-2-[5-(4-hydroxy-piperidine-1-carbonyl)-pyridin-2-ylamino]-7H-pyrrolo[2,3-d]pyrimidine-6-carboxylic acid dimethylamide]",,
0.001 to 0.01,> 15,> 15,,,,"CN(C)CC(=O)N1CCN(c2ccc(Nc3ncc4cc(C(=O)N(C)C)n(C5CCCC5)c4n3)nc2)CC1 [Example 88, 7-Cyclopentyl-2-{5-[4-(2-dimethylamino-acetyl)-piperazin-1-yl]-pyridin-2-ylamino}-7H-pyrrolo[2,3-d]pyrimidine-6-carboxylic acid dimethylamide]",,
0.01 to 0.1,> 15,> 15,,,,"CN(C)C(=O)c1cc2cnc(Nc3ccc(N4CCN(C(=O)CC5CCCCC5)CC4)cn3)nc2n1C1CCCC1 [Example 90, 2-{5-[4-(2-Cyclohexyl-acetyl)-piperazin-1-yl]-7H-pyridin-2-ylamino}-7-cyclopentyl-7H-pyrrolo[2,3-d]pyrimidine-6-carboxylic acid dimethylamide]",,
0.01 to 0.1,> 15,> 15,,,,"CN(C)C(=O)c1cc2cnc(Nc3ccc(N4CCN(C(=O)CCC5CCCC5)CC4)cn3)nc2n1C1CCCC1 [Example 91, 7-Cyclopentyl-2-{5-[4-(3-cyclopentyl-propionyl)-piperazin-1-yl]-pyridin-2-ylamino}-7H-pyrrolo[2,3-d]pyrimidine-6-carboxylic acid dimethylamide]",,
0.001 to 0.01,> 15,> 15,,,,"CC(C)CN1CCN(c2ccc(Nc3ncc4cc(C(=O)N(C)C)n(C5CCCC5)c4n3)nc2)CC1 [Example 92, 7-Cyclopentyl-2-[5-(4-isobutyl-piperazin-1-yl)-pyridin-2-ylamino]-7H-pyrrolo[2,3-d]pyrimidine-6-carboxylic acid dimethylamide]",,
0.01 to 0.1,> 15,> 15,,,,"CN(C)C(=O)c1cc2cnc(Nc3ccc(N4CCN(C(=O)N5CCCCC5)CC4)cn3)nc2n1C1CCCC1 [Example 94, 7-Cyclopentyl-2-{5-[4-(piperidine-1-carbonyl)-piperazin-1-yl]-pyridin-2-ylamino}-7H-pyrrolo[2,3-d]pyrimidine-6-carboxylic acid dimethylamide]",,
0.01 to 0.1,> 15,> 15,,,,"CC(C)OCCN1CCN(c2ccc(Nc3ncc4cc(C(=O)N(C)C)n(C5CCCC5)c4n3)nc2)CC1 [Example 95, 7-Cyclopentyl-2-{5-[4-(2-isopropoxy-ethyl)-piperazin-1-yl]-pyridin-2-ylamino}-7H-pyrrolo[2,3-d]pyrimidine-6-carboxylic acid dimethylamide]",,
